Like-named read-outs stand apart in the source and are kept apart here.
How the values were obtained:
[1] = system: Staphylococcus aureus ATCC 29213; test: Antibacterial killing, 96-well turbidimetric (modified vCC) assay; format: cell-based; conditions: Table S3; concentration at which 100% killing occurred, no bacterial regrowth; No = not active
Procedure: (§1) The antibacterial activity of defensin mimetics against Staphylococcus aureus ATCC 29213 and Escherichia coli 25922 was carried out in a 96-well turbidimetric assay essentially as described previously with the following modifications: bacteria were exposed for 30 min to compounds in 10 mM phosphate buffer containing 5% DMSO prior to addition of 2× Muller-Hinton medium. Bacterial growth was monitored for 12 hours and data were analyzed as described. Determination of MICs was performed by Micromyx, LLC (Kalamazoo, Michigan) according to CLSI standards.

[2] = system: Escherichia coli ATCC 25922; test: as above; format: cell-based; conditions: Table S3; concentration at which 100% killing occurred, no bacterial regrowth; No = not active
Procedure: as §1

[3] = Surface Plasmon Resonance binding to immobilized 3-Lipid II; conditions: Table S3; SPR, initial determination at 10 µM
Procedure: Surface Plasmon Resonance binding experiments were carried out on a BIAcore T100 system (BIAcore Inc., Piscataway, NY) at 25°C. The assay buffer was 10 mM HEPES, 150 mM NaCl, 0.05% surfactant P20, pH 7.4 (±3 mM EDTA) supplemented with 10% DMSO. […] For initial determination of binding, defensin mimetics were introduced into the flow-cells (30 µl/min) in the running buffer at 10 µM. Resonance signals were corrected for nonspecific binding by subtracting the background of the control flow-cell. After each analysis, the sensor chip surfaces were regenerated with 50 mM NaOH for 30 s at a flow rate 100 µl/min, and equilibrated with the buffer prior to next injection. For binding kinetics studies, binding isotherms were analyzed with manufacturer-supplied software for BIAcore T100.

Caco-2 = test: Cytotoxicity by MTT assay; format: cell-based, human

SMILES	active against S.aureus (IC100%) [1]	active against E.coli (IC100%) [2]	Binding on Lipid II? [3]	cytotoxic for Caco II (C50% survival) (Caco-2)	IC50 (Caco-2)	cytotoxic for Caco II (C50% survival) (Caco-2; Table S3, No = not cytotoxic)	IC50 (Caco-2; Table S3, No = not cytotoxic, read-out: cytotoxic for Caco II (C50% survival))
C(#Cc1ccccc1)CN(CC#Cc1ccccc1)CCCCCCN(CC#Cc1ccccc1)CC#Cc1ccccc1.Cl.Cl [Compound 5230300, N,N,N',N'-tetrakis(3-phenyl-2-propyn-1-yl)-1,6-hexanediamine dihydrochloride]	No	No	No	No			
CCCCN(CC#Cc1ccc(C#CCN(CCCC)CCCC)cc1)CCCC.Cl.Cl [Compound 5230313, 3,3'-(1,4-phenylene)bis(N,N-dibutyl-2-propyn-1-amine) dihydrochloride]	No	No	Yes		366 µM		
Fc1ccc(N2CCN(Cc3ccc(-c4ccccc4)cc3)CC2)cc1 [Compound 5267798, 1-(4-biphenylylmethyl)-4-(4-fluorophenyl)piperazine]	No	No	No	No			
Clc1ccc(N2CCN(Cc3ccc(-c4ccccc4)cc3)CC2)cc1 [Compound 5270046, 1-(4-biphenylylmethyl)-4-(4-chlorophenyl)piperazine]	No	No	No	No			
FC(F)(F)c1cccc(N2CCN(Cc3ccc4c(c3)Cc3ccccc3-4)CC2)c1 [Compound 5418391, 1-(9H-fluoren-2-ylmethyl)-4-[3-(trifluoromethyl)phenyl]piperazine]	No	No	No		159 µM		
FC(F)(F)c1cccc(N2CCN(CCc3ccccc3)CC2)c1 [Compound 5422765, 1-(2-phenylethyl)-4-[3-(trifluoromethyl)phenyl]piperazine]	No	No	Yes		130 µM		
CCN(CC)c1ccc(CN2CCN(c3cccc(C(F)(F)F)c3)CC2)cc1 [Compound 5427129, N,N-diethyl-4-({4-[3-(trifluoromethyl)phenyl]-1-piperazinyl}methyl)aniline]	(No)	No	Yes		192 µM		
CN(C)c1ccc(C=CCN2CCN(Cc3ccccc3)CC2)cc1 [Compound 5429346, 4-[3-(4-benzyl-1-piperazinyl)-1-propen-1-yl]-N,N-dimethylaniline]	500 µM	No	Yes		132 µM		
CCCN1CCC(NCc2cccc(C(F)(F)F)c2)CC1 [Compound 5452876, 1-propyl-N-[3-(trifluoromethyl)benzyl]-4-piperidinamine]	No	No	No	No			
Fc1ccc(N2CCN(C3CCN(Cc4ccccc4)CC3)CC2)cc1 [Compound 5457685, 1-(1-benzyl-4-piperidinyl)-4-(4-fluorophenyl)piperazine]	No	No	No	No			
CC(CCc1ccc(O)cc1)NCCc1ccccc1 (stereo not drawn) [Compound 5460400, 4-{3-[(2-phenylethyl)amino]butyl}phenol]	No	No	No			No	
CC[n+]1c(/C=C/C=C2\N(C)c3ccccc3C2(C)C)sc2ccccc21.[O-][Cl+3]([O-])([O-])[O-] [Compound 5660386, 3-ethyl-2-[(1E)-3-[(2Z)-1,3,3-trimethyl-2,3-dihydro-1H-indol-2-ylidene]prop-1-en-1-yl]-1,3-benzothiazol-3-ium perchlorate]	7,8 µM	125 µM	No				5.6 µM
Cc1ccc(CN2CCC(N3CCN(c4ccccc4F)CC3)CC2)cc1 [Compound 6711103, 1-(2-fluorophenyl)-4-[1-(4-methylbenzyl)-4-piperidinyl]piperazine]	No	No	No	No			
O=C(O)C(=O)O.c1ccc(CCCN2CCC(N3CCN(c4ccccc4)CC3)CC2)cc1 [Compound 6785396, 1-phenyl-4-[1-(3-phenylpropyl)-4-piperidinyl]piperazine oxalate]	No	No	No		168 µM		
CC(C)(O)C#Cc1ccc(C#Cc2ccc(C#CC(C)(C)O)cc2)cc1 [Compound 7191067, 4,4'-(1,2-ethynediyldi-4,1-phenylene)bis(2-methyl-3-butyn-2-ol)]	No	No	No	No			
Cc1ccc(CN2C(=O)c3ccccc3C2(O)Cc2ccccc2)cc1 (stereo not drawn) [Compound 7832238, 3-benzyl-3-hydroxy-2-[(4-methylphenyl)methyl]-2,3-dihydro-1H-isoindol-1-one]	No	No	No	No			
CC(C)CCCC(C)C1CCC2C3CC=C4CC(O)CCC4(C)C3CCC12C (stereo not drawn) [Compound N050-0022, 2,15-dimethyl-14-(6-methylheptan-2-yl)tetracyclo[8.7.0.0^{2,7}.0^{11,15}]heptadec-7-en-5-ol]	No	No	No		123 µM		
O=C(CSc1nc(-c2ccccc2)c(-c2ccccc2)n1-c1ccccc1)N1CCCc2ccccc21 [ST4098270, 1-(1,2,3,4-tetrahydroquinolin-1-yl)-2-[(1,4,5-triphenyl-1H-imidazol-2-yl)sulfanyl]ethan-1-one]	No	No	No	No			
CCN1/C(=C\C=C\c2sc3c4ccccc4[se]c3[n+]2CC)Sc2c1[se]c1ccccc21 [STK368153, 3-ethyl-2-[(1E,3E)-3-(3-ethyl[1]benzoselenopheno[2,3-d][1,3]thiazol-2(3H)-ylidene)prop-1-en-1-yl][1]benzoselenopheno[2,3-d][1,3]thiazol-3-ium]	7,8 µM	7,8 µM	Yes		9.6 µM		
CCn1c2ccccc2c2cc(N/C=C(\C#N)c3nc(-c4ccc(C)cc4C)cs3)ccc21 [STK537076, (2E)-2-[4-(2,4-dimethylphenyl)-1,3-thiazol-2-yl]-3-[(9-ethyl-9H-carbazol-3-yl)amino]prop-2-enenitrile]	No	No	No		240 µM		
CCN1/C(=C/C=C/C=C/C2=CC(=C/c3sc4ccccc4[n+]3CC)/CC(C)(C)C2)Sc2ccccc21 [STK792971, 3-ethyl-2-[(E)-{3-[(1E,3E,5Z)-5-(3-ethyl-1,3-benzothiazol-2(3H)-ylidene)penta-1,3-dien-1-yl]-5,5-dimethylcyclohex-2-en-1-ylidene}methyl]-1,3-benzothiazol-3-ium]	62,5 µM	No	No	No			
CC[n+]1c(/C=C/C=C/N(C(C)=O)c2ccccc2)sc2cc(OC)ccc21 [STK874226, 2-{(1E,3E)-4-[acetyl(phenyl)amino]buta-1,3-dien-1-yl}-3-ethyl-6-methoxy-1,3-benzothiazol-3-ium]	125 µM	250 µM	No	No			
COc1ccc(-c2cn(CC(=O)N(c3ccccc3)C(C)C)c3[n+]2CCC3)cc1 [STL050072, 3-(4-methoxyphenyl)-1-{2-oxo-2-[phenyl(propan-2-yl)amino]ethyl}-1,5,6,7-tetrahydropyrrolo[1,2-a]imidazol-4-ium]	No	No	No		340 µM		
CN1CCC(N(Cc2ccccc2)C(=O)CCc2ccc3c(c2)n(C)c(=O)n3C)CC1 [SYN22879441, N-Benzyl-3-(1,3-dimethyl-2-oxo-2,3-dihydro-1H-benzoimidazol-5-yl)-N-(1-methyl-piperidin-4-yl)-propionamide]	No	No	No	No			

Source: publication PMC3820767, “Turning Defense into Offense: Defensin Mimetics as Novel Antibiotics Targeting Lipid II” (PLoS Pathogens, 2013)
